Experimental data from ChEMBL document CHEMBL1201862, “PubChem BioAssay data set” (2004).
Calls of active or inactive are those of the source.

How the values were obtained:
[1] = molecular target: Eukaryotic translation initiation factor 4E (Mus musculus, UniProt P63073); assay: eIF4E–eIF4G protein interaction inhibitors, dose response, biochemical, TR-FRET (AID 855); assay type: functional;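 further: potency for disrupting eIF4E binding to eIF4GI seen as loss of FRET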
[2] = HEp-2 cell cytotoxicity, dose response, cytotoxicity control for RSV inhibitor project, HTS (AID 2410); assay type: functional; settings: human respiratory syncytial virus
Aminopeptidase N = molecular target: T1, Aminopeptidase N (Plasmodium falciparum FcB1/Columbia, UniProt O96935); assay: P. falciparum M1AAP inhibitors, biochemical, fluorogenic H-Leu-NHMec substrate, 1536-well (AID 1445); parameters: species or system Plasmodium falciparum 3D7, 3D7
T1 sequence (O96935 whole entry): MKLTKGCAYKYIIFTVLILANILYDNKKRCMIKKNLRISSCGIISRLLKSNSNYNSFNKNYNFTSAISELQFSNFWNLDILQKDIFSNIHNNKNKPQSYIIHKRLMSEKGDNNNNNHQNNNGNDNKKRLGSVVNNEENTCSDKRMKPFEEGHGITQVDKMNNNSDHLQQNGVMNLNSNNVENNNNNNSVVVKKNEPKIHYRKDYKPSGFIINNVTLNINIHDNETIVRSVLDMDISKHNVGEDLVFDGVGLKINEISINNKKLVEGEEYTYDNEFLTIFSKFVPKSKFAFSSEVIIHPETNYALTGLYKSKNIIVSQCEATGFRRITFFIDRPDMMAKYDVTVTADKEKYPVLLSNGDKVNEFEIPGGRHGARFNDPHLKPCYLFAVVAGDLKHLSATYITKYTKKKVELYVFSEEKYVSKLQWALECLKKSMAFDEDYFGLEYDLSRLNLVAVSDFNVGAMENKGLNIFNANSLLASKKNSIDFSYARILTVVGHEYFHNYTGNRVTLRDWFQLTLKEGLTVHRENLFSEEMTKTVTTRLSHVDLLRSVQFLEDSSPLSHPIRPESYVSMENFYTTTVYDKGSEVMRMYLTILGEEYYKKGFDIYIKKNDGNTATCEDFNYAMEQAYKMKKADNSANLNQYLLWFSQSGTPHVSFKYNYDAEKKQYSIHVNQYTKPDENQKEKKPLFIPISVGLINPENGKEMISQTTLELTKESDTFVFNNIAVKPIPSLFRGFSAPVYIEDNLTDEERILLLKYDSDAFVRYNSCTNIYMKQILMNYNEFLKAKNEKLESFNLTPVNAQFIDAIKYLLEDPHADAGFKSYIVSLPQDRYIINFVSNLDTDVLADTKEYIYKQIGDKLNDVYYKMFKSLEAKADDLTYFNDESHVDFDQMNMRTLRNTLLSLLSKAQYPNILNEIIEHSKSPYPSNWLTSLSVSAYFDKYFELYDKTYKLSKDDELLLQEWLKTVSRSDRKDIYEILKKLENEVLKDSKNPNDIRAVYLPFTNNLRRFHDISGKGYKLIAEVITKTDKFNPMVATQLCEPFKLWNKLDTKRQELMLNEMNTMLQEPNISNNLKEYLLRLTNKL

Nonstructural protein 1 = Nonstructural protein 1 (Influenza A virus, UniProt Q194T2); assay type: functional, Influenza A virus (A/California/07/2009(H1N1))
[3] = microbe, parasite or virus in culture; assay type: functional; settings: Mycobacterium tuberculosis
Leucine aminopeptidase = molecular target: T2, Leucine aminopeptidase (Plasmodium falciparum 3D7, UniProt Q8IL11); assay: P. falciparum M17LAP inhibitors, primary screen, biochemical, fluorogenic H-Leu-NHMec substrate, 1536-well (AID 1619); assay type: functional
T2 sequence (Q8IL11 whole entry): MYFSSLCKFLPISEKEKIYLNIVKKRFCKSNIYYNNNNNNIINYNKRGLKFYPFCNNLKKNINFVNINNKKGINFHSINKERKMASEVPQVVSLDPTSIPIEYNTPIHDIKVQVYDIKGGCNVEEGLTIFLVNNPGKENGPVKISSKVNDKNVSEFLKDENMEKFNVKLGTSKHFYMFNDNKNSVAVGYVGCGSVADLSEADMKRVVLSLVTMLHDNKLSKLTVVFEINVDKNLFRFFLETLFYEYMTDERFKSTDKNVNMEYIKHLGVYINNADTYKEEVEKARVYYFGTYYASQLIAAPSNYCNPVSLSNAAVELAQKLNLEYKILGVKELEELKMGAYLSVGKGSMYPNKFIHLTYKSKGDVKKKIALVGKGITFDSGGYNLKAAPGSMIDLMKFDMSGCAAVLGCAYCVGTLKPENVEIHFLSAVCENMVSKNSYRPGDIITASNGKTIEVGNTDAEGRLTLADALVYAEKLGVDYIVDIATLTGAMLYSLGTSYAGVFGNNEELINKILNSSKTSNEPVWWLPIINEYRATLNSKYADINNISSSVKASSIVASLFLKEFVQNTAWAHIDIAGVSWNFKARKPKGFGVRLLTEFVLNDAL

[4] = molecular target: T3, Carboxy-terminal domain RNA polymerase II polypeptide A small phosphatase 1 (Homo sapiens, UniProt Q9GZU7); assay: inhibitors of CTDSP1, concentration-response testing, biochemical assay, absorbance-based, actives from ultra-high-throughput screening (AID 540297); assay type: functional
T3 sequence (Q9GZU7 whole entry): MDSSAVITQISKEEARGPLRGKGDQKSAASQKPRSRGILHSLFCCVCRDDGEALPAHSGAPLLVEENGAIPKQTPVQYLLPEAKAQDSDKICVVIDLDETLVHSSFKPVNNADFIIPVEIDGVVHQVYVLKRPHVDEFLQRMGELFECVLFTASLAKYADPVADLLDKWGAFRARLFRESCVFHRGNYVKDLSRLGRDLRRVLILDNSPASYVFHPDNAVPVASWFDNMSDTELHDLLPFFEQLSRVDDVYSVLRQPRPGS

[5] = molecular target: Induced myeloid leukemia cell differentiation protein Mcl-1 (Homo sapiens, UniProt Q07820); assay type: functional
Fatty acid synthase [6] = molecular target: T4, Fatty acid synthase (Homo sapiens, UniProt P49327); assay: FAS thioesterase domain inhibitors, dose response, biochemical, endpoint fluorescence intensity, uHTS hits (AID 624327); assay type: functional;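 further: fluorescence from hydrolysis of an O-methyl fluorescein acyl ester substrate by the enzyme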
Fatty acid synthase [7] = molecular target: T4, Fatty acid synthase; assay: FAS thioesterase domain inhibitors, dose response, biochemical, kinetic fluorescence intensity (AID 624326); assay type: functional;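 further: rate of fluorescence rise from hydrolysis of a fluorogenic O-methyl fluorescein ester substrate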
[8] = molecular target: T5, Replicative DNA helicase DnaB (Mycobacterium tuberculosis, UniProt P9WMR3); assay: DnaB intein splicing inhibitors, dose response, biochemical, cell-free fluorescence (AID 449749); assay type: functional
T5 sequence (P9WMR3 whole entry): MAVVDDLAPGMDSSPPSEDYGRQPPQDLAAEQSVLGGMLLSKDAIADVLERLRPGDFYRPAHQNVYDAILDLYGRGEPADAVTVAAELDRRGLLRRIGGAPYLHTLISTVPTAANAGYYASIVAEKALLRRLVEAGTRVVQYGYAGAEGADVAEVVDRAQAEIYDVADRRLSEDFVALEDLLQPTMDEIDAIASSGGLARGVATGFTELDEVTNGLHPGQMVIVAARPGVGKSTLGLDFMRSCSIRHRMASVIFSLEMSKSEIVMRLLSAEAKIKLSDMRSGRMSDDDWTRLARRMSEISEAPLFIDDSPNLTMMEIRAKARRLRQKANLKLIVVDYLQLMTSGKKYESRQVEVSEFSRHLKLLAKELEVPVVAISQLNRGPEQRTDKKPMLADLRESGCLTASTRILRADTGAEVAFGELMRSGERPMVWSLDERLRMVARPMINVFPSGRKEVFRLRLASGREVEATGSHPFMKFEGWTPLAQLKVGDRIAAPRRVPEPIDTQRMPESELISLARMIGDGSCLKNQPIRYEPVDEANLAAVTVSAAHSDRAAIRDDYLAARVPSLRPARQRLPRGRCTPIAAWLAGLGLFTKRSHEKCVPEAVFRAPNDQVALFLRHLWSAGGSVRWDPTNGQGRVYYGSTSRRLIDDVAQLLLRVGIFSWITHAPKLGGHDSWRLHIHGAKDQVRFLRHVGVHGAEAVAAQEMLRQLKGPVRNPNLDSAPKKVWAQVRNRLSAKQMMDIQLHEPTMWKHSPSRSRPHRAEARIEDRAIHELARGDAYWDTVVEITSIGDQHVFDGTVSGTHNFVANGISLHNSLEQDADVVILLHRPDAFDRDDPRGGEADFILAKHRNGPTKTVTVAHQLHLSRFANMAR

Protein RecA = molecular target: T6, Protein RecA (Mycobacterium tuberculosis, UniProt P9WHJ3); assay: Fluorescence Cell-Free Homogeneous Dose Retest to Identify Inhibitors of RecA-Intein Splicing Activity. [Related pubchem assays (depositor defined):AID2097, AID2223, AID489010, AID492950]; assay type: functional
T6 sequence (P9WHJ3 whole entry): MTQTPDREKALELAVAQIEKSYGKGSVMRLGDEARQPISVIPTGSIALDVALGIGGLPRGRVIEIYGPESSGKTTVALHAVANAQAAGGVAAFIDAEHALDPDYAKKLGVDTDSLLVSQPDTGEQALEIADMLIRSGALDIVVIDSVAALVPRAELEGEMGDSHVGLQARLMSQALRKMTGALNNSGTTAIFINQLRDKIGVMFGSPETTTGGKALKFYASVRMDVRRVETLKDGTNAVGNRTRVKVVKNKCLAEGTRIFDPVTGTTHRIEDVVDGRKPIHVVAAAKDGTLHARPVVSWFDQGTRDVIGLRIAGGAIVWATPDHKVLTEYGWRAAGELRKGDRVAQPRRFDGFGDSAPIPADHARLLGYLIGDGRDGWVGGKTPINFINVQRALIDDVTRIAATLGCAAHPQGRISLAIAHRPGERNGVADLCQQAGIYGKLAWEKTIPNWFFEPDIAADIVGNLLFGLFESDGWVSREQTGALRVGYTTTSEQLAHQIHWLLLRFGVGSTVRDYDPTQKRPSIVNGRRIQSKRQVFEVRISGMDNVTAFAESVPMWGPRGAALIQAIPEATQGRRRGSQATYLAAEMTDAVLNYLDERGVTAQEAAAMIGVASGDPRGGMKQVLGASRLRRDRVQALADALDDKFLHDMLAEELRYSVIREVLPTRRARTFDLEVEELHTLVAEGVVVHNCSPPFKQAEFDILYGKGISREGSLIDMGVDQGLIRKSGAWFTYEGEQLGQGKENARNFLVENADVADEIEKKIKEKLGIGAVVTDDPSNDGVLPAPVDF

Genome polyprotein = Genome polyprotein (dengue virus type 2, UniProt P29990); assay: Dengue-2 NS5 methyltransferase inhibitors, primary screen, biochemical, confirmation dose response (AID 588689); assay type: functional
Genome polyprotein, sequence (P29990 2492-3391 limits assumed): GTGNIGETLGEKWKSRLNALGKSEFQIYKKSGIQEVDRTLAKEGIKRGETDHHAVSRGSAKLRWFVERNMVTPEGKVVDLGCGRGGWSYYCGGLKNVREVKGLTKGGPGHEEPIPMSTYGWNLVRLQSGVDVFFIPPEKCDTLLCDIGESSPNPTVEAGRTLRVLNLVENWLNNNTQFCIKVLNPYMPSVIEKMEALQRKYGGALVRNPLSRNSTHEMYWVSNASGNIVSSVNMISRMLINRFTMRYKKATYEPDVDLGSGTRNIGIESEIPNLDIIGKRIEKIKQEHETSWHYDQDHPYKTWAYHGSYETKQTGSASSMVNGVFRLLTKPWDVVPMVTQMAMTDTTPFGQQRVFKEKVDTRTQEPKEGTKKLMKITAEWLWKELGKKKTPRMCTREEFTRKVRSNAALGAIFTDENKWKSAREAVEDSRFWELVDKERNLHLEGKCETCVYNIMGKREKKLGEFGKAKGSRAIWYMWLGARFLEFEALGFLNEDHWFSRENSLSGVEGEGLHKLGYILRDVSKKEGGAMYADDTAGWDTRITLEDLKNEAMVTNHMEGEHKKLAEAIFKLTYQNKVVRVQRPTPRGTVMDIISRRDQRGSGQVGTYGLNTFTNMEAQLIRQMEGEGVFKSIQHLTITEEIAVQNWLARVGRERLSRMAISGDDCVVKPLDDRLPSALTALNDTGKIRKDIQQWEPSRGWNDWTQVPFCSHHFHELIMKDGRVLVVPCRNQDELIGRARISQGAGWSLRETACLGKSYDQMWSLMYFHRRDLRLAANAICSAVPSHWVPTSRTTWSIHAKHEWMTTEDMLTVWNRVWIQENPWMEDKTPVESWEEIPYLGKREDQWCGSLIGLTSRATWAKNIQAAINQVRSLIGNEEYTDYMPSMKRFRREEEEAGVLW

Eukaryotic translation initiation factor 4E, sequence (P63073 whole entry): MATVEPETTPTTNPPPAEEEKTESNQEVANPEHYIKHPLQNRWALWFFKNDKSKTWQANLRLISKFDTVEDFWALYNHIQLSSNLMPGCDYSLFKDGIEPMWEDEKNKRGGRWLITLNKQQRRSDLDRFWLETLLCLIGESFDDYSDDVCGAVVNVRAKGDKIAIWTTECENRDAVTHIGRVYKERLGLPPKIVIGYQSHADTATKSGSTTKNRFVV
T4 sequence (P49327 whole entry, the tested form may be a part): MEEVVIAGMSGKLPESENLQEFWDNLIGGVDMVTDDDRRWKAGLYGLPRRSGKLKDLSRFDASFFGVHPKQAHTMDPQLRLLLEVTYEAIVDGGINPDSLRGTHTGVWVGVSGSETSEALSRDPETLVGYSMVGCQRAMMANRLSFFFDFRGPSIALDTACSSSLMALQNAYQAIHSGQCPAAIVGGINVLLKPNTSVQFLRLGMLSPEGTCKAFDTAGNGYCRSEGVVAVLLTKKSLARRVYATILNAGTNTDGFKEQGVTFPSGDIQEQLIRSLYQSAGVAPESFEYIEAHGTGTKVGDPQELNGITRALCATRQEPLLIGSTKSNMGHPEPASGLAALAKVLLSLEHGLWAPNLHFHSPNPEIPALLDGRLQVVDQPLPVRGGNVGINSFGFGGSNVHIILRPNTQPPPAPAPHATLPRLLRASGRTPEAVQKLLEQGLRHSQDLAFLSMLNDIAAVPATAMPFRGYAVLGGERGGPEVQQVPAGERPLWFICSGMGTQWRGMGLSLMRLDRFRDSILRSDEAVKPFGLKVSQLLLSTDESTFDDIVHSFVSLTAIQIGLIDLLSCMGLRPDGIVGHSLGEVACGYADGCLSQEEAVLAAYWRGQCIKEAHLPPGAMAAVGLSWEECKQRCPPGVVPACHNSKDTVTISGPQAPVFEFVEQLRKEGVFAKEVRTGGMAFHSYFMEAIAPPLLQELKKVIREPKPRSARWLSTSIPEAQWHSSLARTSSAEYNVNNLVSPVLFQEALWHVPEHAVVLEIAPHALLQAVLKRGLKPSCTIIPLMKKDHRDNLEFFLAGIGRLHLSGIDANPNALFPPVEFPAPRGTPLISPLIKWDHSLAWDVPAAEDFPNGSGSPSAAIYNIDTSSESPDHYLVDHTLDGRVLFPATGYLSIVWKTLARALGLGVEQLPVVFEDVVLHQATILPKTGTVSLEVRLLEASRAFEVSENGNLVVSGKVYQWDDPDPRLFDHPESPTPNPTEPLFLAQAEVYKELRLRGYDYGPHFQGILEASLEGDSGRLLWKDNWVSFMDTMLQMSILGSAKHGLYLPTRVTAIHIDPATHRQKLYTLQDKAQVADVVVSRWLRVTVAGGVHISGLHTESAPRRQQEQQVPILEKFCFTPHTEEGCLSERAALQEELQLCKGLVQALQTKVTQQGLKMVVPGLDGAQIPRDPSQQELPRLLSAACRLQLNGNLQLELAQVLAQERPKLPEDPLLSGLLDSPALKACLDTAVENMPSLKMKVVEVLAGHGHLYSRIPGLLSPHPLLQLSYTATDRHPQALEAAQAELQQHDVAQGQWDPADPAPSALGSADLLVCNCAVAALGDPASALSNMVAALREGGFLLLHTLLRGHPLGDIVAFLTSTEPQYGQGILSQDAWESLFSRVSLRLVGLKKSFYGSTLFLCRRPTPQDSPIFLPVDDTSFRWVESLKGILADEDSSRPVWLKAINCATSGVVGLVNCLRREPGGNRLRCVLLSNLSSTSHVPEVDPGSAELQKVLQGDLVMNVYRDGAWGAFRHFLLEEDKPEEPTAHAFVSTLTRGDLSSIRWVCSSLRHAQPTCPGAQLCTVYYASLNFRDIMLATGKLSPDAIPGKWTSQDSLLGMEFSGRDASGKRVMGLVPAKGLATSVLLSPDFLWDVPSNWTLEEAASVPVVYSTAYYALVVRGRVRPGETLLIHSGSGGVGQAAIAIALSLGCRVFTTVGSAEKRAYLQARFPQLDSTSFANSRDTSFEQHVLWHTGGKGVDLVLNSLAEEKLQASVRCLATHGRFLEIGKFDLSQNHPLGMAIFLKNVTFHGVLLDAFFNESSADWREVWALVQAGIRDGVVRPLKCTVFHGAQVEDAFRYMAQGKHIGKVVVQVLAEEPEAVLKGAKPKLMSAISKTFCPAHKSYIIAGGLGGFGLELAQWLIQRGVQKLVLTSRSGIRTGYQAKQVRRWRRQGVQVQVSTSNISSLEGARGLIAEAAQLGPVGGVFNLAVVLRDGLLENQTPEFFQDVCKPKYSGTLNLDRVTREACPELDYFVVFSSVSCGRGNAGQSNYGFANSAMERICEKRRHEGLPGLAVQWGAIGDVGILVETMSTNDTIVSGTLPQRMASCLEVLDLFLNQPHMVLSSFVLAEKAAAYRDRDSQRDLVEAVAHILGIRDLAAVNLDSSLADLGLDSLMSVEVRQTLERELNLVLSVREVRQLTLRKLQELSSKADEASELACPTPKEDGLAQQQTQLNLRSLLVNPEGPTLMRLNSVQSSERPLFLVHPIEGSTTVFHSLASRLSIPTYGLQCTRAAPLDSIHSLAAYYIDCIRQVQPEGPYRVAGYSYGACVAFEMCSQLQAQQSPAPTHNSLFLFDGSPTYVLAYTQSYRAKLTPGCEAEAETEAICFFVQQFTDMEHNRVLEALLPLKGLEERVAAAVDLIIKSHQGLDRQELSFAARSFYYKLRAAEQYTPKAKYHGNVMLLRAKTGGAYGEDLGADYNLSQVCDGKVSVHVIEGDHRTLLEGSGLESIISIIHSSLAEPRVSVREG
Nonstructural protein 1, sequence (Q194T2 whole entry): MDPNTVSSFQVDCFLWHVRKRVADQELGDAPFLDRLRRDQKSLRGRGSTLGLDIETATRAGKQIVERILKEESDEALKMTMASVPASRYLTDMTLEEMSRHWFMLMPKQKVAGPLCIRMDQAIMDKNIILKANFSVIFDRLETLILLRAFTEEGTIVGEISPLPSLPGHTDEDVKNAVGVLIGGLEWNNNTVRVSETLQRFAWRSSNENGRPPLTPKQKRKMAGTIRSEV
Induced myeloid leukemia cell differentiation protein Mcl-1, sequence (Q07820 whole entry, the tested form may be a part): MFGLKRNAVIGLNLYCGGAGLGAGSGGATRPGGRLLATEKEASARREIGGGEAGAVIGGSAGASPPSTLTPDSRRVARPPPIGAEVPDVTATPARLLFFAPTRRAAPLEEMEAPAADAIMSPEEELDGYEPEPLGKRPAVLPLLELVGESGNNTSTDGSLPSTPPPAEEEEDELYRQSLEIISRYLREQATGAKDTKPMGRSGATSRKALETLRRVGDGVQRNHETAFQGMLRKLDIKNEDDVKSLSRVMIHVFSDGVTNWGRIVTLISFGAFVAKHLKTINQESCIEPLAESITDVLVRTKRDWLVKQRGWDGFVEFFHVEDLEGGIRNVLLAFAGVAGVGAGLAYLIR

With `Cc1ccc(S(=O)(=O)N2CCN(C(C)C(=O)Nc3ccccc3-c3ccccc3)CC2)cc1` (stereo not drawn) as the molecule, how does the IC50 [1] read?
The IC50 was > 64 µM (inactive).

Which CC50 [2] does the source give for `COc1ccccc1NC(=O)Nc1nn(C)c2cccc(OC)c12` here?
The CC50 was 41.1 µM (active).

What about the IC50 (cells) of the same molecule?
Its IC50 is 41.2 µM (active).

With `CCCOc1ccc(N2C(=O)CC(N(Cc3ccc(OC)cc3)C(S)=Nc3ccccc3)C2=O)cc1` (stereo not drawn) as the molecule, how does the CC50 [2] read?
The CC50 was > 50 µM (active).

And the IC50 (cells)?
The IC50 was 7.34 µM (active).

Which results are given for `Cc1ccc(O)c(NC(=S)NC(=O)Cc2ccc(Cl)cc2)c1`?
CC50 [2]: 29.4 µM (active); IC50 (cells): 23.4 µM (active)

With `COc1ccc(C(C)=O)cc1CSc1nc2cc(C(=O)O)ccc2c(=O)n1Cc1ccccc1` as the molecule, how does the IC50 (Aminopeptidase N) read?
Its IC50 is 83.5 µM (active).

Which IC50 (Aminopeptidase N) does the source give for `C#CCCOC(=O)N1C2=NC(C(=O)OC)=C(C(=O)OC)[C@@H]3N(CC=C)c4ccccc4[C@]23C[C@H]1C(=O)OC` here?
Its IC50 is 58.5 µM (active).

For `Cc1ccc(S(=O)(=O)N(C)CCCC(=O)Nc2cc(C)ccc2C)cc1`, which IC50 (Nonstructural protein 1) is on record?
Its IC50 is 22.9 µM (active).

Which results are given for `Cc1nn(-c2ccccc2)c2c1C(c1ccc([N+](=O)[O-])cc1)N1C(=N2)C(=O)Nc2ccccc21` (stereo not drawn)?
CC50 [2]: 34.8 µM (active); CC50 [3]: 39.3 µM (active); IC50 (cells): 31.5 µM (active)

For `Oc1c(C(c2cccs2)N2CCN(c3ccccc3)CC2)ccc2cccnc12` (stereo not drawn), which IC50 [1] is on record?
Its IC50 is > 64 µM (inactive).

Which IC50 [1] does the source give for `COc1ccc(OCC(=O)N2CC3(C)CC2CC(C)(C)C3)cc1` (stereo not drawn) here?
Its IC50 is > 64 µM (inactive).

Which IC50 [1] does the source give for `CC(=O)C1=C(C)NC(SCc2ccc(C#N)cc2)=C(C#N)C1c1ccco1` (stereo not drawn) here?
Its IC50 is > 64 µM (inactive).

What does the source list for `O=C(O)c1ccc(/C=N/NC(=O)c2cc(-c3ccc4c5c(cccc35)CC4)[nH]n2)cc1`?
IC50 (Leucine aminopeptidase): 26.8 µM (active); IC50 [4]: 4.31 µM (active)

For `CCOc1cc(/C=C2\S/C(=N\c3ccccc3)N(c3ccccc3)C2=O)ccc1OCC(=O)O`, which IC50 (Leucine aminopeptidase) is on record?
Its IC50 is 31.3 µM (active).

For `C/C(CCC1CC(C)OC1=O)=N/Nc1nc(-c2ccccc2)cs1` (stereo not drawn), which IC50 (Leucine aminopeptidase) is on record?
Its IC50 is 30.8 µM (active).

With `COc1cc(/C=N/NC(=O)C(Cc2c[nH]c3ccccc23)NC(=O)OCc2ccccc2)cc([N+](=O)[O-])c1O` (stereo not drawn) as the molecule, how does the IC50 (Aminopeptidase N) read?
Its IC50 is 4.75 µM (active).

And the IC50 [5]?
Its IC50 is 6.11 µM (active).

And the IC50 (Fatty acid synthase [6])?
The IC50 was 5.95 µM (active).

What about the IC50 (Fatty acid synthase [7]) of the same molecule?
The IC50 was 8.12 µM (active).

Which IC50 (Leucine aminopeptidase) does the source give for `Cc1ccc(-c2ccc(/C=N/NC3=NC(=O)C(CC(=O)O)S3)o2)c([N+](=O)[O-])c1` (stereo not drawn) here?
The IC50 was 101 µM (active).

And the AC50 [8]?
Its AC50 is 26.5 µM (active).

What about the EC50 (Protein RecA) of the same molecule?
Its EC50 is 10.5 µM (active).

What about the IC50 (Genome polyprotein) of the same molecule?
Its IC50 is 88.6 µM (active).
